In brackets after ≈: the same amount, converted by molar mass.
Assays:
Format in all cases: functional
Pichia kudriavzevii = assay: Antifungal activity against Candida krusei ATCC 6258 assessed as inhibition of fungal growth measured after 72 hrs by CLSI based liquid medium dilution method
Candida tropicalis = assay: Antifungal activity against Candida tropicalis ATCC 1369 assessed as inhibition of fungal growth measured after 72 hrs by CLSI based liquid medium dilution method
Candida albicans [1] = assay: Antifungal activity against Candida albicans ATCC SC5314 assessed as inhibition of fungal growth measured after 72 hrs by CLSI based liquid medium dilution method
Aspergillus fumigatus = assay: Antifungal activity against Aspergillus fumigatus KM8001 assessed as inhibition of fungal growth measured after 72 hrs by CLSI based liquid medium dilution method
Cryptococcus neoformans = assay: Antifungal activity against Cryptococcus neoformans assessed as inhibition of fungal growth measured after 72 hrs by CLSI based liquid medium dilution method
Candida albicans [2] = assay: Antifungal activity against fluconazole-resistant Candida albicans 904 assessed as inhibition of fungal growth measured after 72 hrs by CLSI based liquid medium dilution method
Candida albicans [3] = assay: Antifungal activity against fluconazole-resistant Candida albicans 17# assessed as inhibition of fungal growth measured after 72 hrs by CLSI based liquid medium dilution method
Candida albicans [4] = assay: Antifungal activity against fluconazole-resistant Candida albicans 901 assessed as inhibition of fungal growth measured after 72 hrs by CLSI based liquid medium dilution method
Candida albicans [5] = assay: Antifungal activity against fluconazole-resistant Candida albicans CaR assessed as inhibition of fungal growth measured after 72 hrs by CLSI based liquid medium dilution method
Candida albicans [6] = assay: Antifungal activity against fluconazole-resistant Candida albicans 632 assessed as inhibition of fungal growth measured after 72 hrs by CLSI based liquid medium dilution method

Structure (SMILES) | MIC50 (Pichia kudriavzevii) [µg/mL] | MIC50 (Candida tropicalis) [µg/mL] | MIC50 (Candida albicans [1]) [µg/mL] | MIC50 (Aspergillus fumigatus) [µg/mL] | MIC50 (Cryptococcus neoformans) [µg/mL] | MIC50 (Candida albicans [2]) [µg/mL] | MIC50 (Candida albicans [3]) [µg/mL] | MIC50 (Candida albicans [4]) [µg/mL] | MIC50 (Candida albicans [5]) [µg/mL] | MIC50 (Candida albicans [6]) [µg/mL]
COc1ccc2cc([C@H](C)C(=O)OC(Cn3ccnc3)c3ccc(F)cc3)ccc2c1 (stereo not given in full) | 2 (≈ 4.78 µM) | 0.5 (≈ 1.19 µM) | 0.5 (≈ 1.19 µM) | 4 (≈ 9.56 µM) | 1 (≈ 2.39 µM) | – | – | – | – | –
C[C@H](C(=O)N(C)CC(O)(Cn1ccnc1)c1ccc(F)cc1)c1cccc(C(=O)c2ccccc2)c1 (stereo not given in full) | 1 (≈ 2.06 µM) | 0.5 (≈ 1.03 µM) | 0.5 (≈ 1.03 µM) | > 8 | 0.5 (≈ 1.03 µM) | – | – | – | – | –
CC(=O)N1CCN(c2ccc(OCC3COC(Cn4ccnc4)(c4ccc(Cl)cc4Cl)O3)cc2)CC1 (stereo not given) [KETOCONAZOLE] | 0.5 (≈ 0.941 µM) | 0.5 (≈ 0.941 µM) | 1 (≈ 1.88 µM) | > 8 | 1 (≈ 1.88 µM) | > 8 | 4 (≈ 7.53 µM) | 4 (≈ 7.53 µM) | 4 (≈ 7.53 µM) | > 8
C[C@H](C(=O)OC(Cn1cnnn1)c1ccc(F)cc1)c1ccc(-c2ccccc2)c(F)c1 (stereo not given in full) | 0.5 (≈ 1.15 µM) | 0.25 (≈ 0.575 µM) | 0.5 (≈ 1.15 µM) | 4 (≈ 9.21 µM) | 1 (≈ 2.3 µM) | – | – | – | – | –
C[C@H](C(=O)N[C@H](Cn1cncn1)c1ccccc1)c1ccc(-c2ccccc2)c(F)c1 | 0.5 (≈ 1.21 µM) | 0.25 (≈ 0.603 µM) | 0.5 (≈ 1.21 µM) | 4 (≈ 9.65 µM) | 0.5 (≈ 1.21 µM) | – | – | – | – | –
C[C@H](C(=O)OC(Cn1cnnn1)c1ccc(Cl)cc1)c1ccc(-c2ccccc2)c(F)c1 (stereo not given in full) | 0.25 (≈ 0.554 µM) | 1 (≈ 2.22 µM) | 1 (≈ 2.22 µM) | 2 (≈ 4.44 µM) | 0.5 (≈ 1.11 µM) | – | – | – | – | –
COc1ccc2cc([C@H](C)C(=O)N[C@H](Cn3ccnc3)c3ccccc3)ccc2c1 | 0.5 (≈ 1.25 µM) | 0.5 (≈ 1.25 µM) | 1 (≈ 2.5 µM) | > 8 | 1 (≈ 2.5 µM) | – | – | – | – | –
C[C@H](C(=O)N[C@H](Cn1cncn1)c1ccccc1)c1cccc(C(=O)c2ccccc2)c1 | 0.5 (≈ 1.18 µM) | 1 (≈ 2.36 µM) | 1 (≈ 2.36 µM) | 2 (≈ 4.71 µM) | 2 (≈ 4.71 µM) | – | – | – | – | –
C[C@H](C(=O)OC(Cn1cnnn1)c1ccc(Cl)cc1)c1cccc(C(=O)c2ccccc2)c1 (stereo not given in full) | 1 (≈ 2.17 µM) | 2 (≈ 4.34 µM) | 0.5 (≈ 1.08 µM) | > 8 | 0.5 (≈ 1.08 µM) | – | – | – | – | –
C[C@H](C(=O)OC(Cn1cnnn1)c1ccc(F)cc1)c1ccc(CC2CCCC2=O)cc1 (stereo not given in full) | 0.5 (≈ 1.15 µM) | 2 (≈ 4.58 µM) | 1 (≈ 2.29 µM) | > 8 | 2 (≈ 4.58 µM) | – | – | – | – | –
COc1ccc2cc([C@H](C)C(=O)OC(Cn3cnnn3)c3ccc(F)cc3)ccc2c1 (stereo not given in full) | 0.5 (≈ 1.19 µM) | 2 (≈ 4.76 µM) | 1 (≈ 2.38 µM) | > 8 | 1 (≈ 2.38 µM) | – | – | – | – | –
C[C@H](C(=O)N(C)CC(O)(Cn1ccnc1)c1ccc(F)cc1)c1ccc(-c2ccccc2)c(F)c1 (stereo not given in full) | 0.25 (≈ 0.526 µM) | 0.25 (≈ 0.526 µM) | 0.25 (≈ 0.526 µM) | 4 (≈ 8.41 µM) | 0.5 (≈ 1.05 µM) | – | – | – | – | –
COc1ccc2cc([C@H](C)C(=O)N[C@H](Cn3cncn3)c3ccccc3)ccc2c1 | 0.25 (≈ 0.624 µM) | 0.25 (≈ 0.624 µM) | 0.25 (≈ 0.624 µM) | 4 (≈ 9.99 µM) | 1 (≈ 2.5 µM) | – | – | – | – | –
C[C@H](C(=O)N(C)CC(O)(Cn1ccnc1)c1ccc(Cl)cc1)c1cccc(C(=O)c2ccccc2)c1 (stereo not given in full) | 0.5 (≈ 0.996 µM) | 1 (≈ 1.99 µM) | 0.5 (≈ 0.996 µM) | 4 (≈ 7.97 µM) | 0.5 (≈ 0.996 µM) | – | – | – | – | –
C[C@H](C(=O)N[C@H](Cn1ccnc1)c1ccccc1)c1ccc(CC2CCCC2=O)cc1 (stereo not given in full) | 0.5 (≈ 1.2 µM) | 0.5 (≈ 1.2 µM) | 2 (≈ 4.81 µM) | 4 (≈ 9.63 µM) | 1 (≈ 2.41 µM) | – | – | – | – | –
C[C@H](C(=O)OC(Cn1cnnn1)c1ccc(F)cc1)c1cccc(C(=O)c2ccccc2)c1 (stereo not given in full) | 0.5 (≈ 1.12 µM) | 1 (≈ 2.25 µM) | 0.5 (≈ 1.12 µM) | > 8 | 0.5 (≈ 1.12 µM) | – | – | – | – | –
C[C@H](C(=O)OC(Cn1cnnn1)c1ccc(Cl)cc1)c1ccc(CC2CCCC2=O)cc1 (stereo not given in full) | 2 (≈ 4.42 µM) | 1 (≈ 2.21 µM) | 2 (≈ 4.42 µM) | > 8 | 4 (≈ 8.83 µM) | – | – | – | – | –
COc1ccc2cc([C@H](C)C(=O)N(C)CC(O)(Cn3ccnc3)c3ccc(Cl)cc3)ccc2c1 (stereo not given in full) | 1 (≈ 2.09 µM) | 1 (≈ 2.09 µM) | 0.5 (≈ 1.05 µM) | > 8 | 2 (≈ 4.18 µM) | – | – | – | – | –
C[C@H](C(=O)N[C@H](Cn1ccnc1)c1ccccc1)c1ccc(-c2ccccc2)c(F)c1 | 0.25 (≈ 0.605 µM) | 0.5 (≈ 1.21 µM) | 0.5 (≈ 1.21 µM) | 4 (≈ 9.67 µM) | 0.5 (≈ 1.21 µM) | – | – | – | – | –
C[C@H](C(=O)OC(Cn1ccnc1)c1ccc(F)cc1)c1cccc(C(=O)c2ccccc2)c1 (stereo not given in full) | 0.5 (≈ 1.13 µM) | 2 (≈ 4.52 µM) | 0.5 (≈ 1.13 µM) | 4 (≈ 9.04 µM) | 0.5 (≈ 1.13 µM) | – | – | – | – | –
C[C@H](C(=O)OC(Cn1ccnc1)c1ccc(F)cc1)c1ccc(CC2CCCC2=O)cc1 (stereo not given in full) | 1 (≈ 2.3 µM) | 2 (≈ 4.6 µM) | 2 (≈ 4.6 µM) | > 8 | 2 (≈ 4.6 µM) | – | – | – | – | –
COc1ccc2cc([C@H](C)C(=O)N(C)CC(O)(Cn3ccnc3)c3ccc(F)cc3)ccc2c1 (stereo not given in full) | 1 (≈ 2.17 µM) | 0.25 (≈ 0.542 µM) | 0.5 (≈ 1.08 µM) | > 8 | 1 (≈ 2.17 µM) | – | – | – | – | –
C[C@H](C(=O)N[C@H](Cn1cncn1)c1ccccc1)c1ccc(CC2CCCC2=O)cc1 (stereo not given in full) | 0.5 (≈ 1.2 µM) | 2 (≈ 4.8 µM) | 1 (≈ 2.4 µM) | > 8 | 2 (≈ 4.8 µM) | – | – | – | – | –
C[C@H](C(=O)N(C)CC(O)(Cn1ccnc1)c1ccc(Cl)cc1Cl)c1ccc(-c2ccccc2)c(F)c1 (stereo not given in full) | 0.5 (≈ 0.95 µM) | 0.25 (≈ 0.475 µM) | 0.25 (≈ 0.475 µM) | 4 (≈ 7.6 µM) | 0.5 (≈ 0.95 µM) | – | – | – | – | –
COc1ccc2cc([C@H](C)C(=O)OC(Cn3cnnn3)c3ccc(Cl)cc3)ccc2c1 (stereo not given in full) | 0.25 (≈ 0.572 µM) | 0.5 (≈ 1.14 µM) | 0.5 (≈ 1.14 µM) | 4 (≈ 9.16 µM) | 0.5 (≈ 1.14 µM) | – | – | – | – | –
C[C@H](C(=O)N[C@H](Cn1ccnc1)c1ccccc1)c1cccc(C(=O)c2ccccc2)c1 | 1 (≈ 2.36 µM) | 2 (≈ 4.72 µM) | 1 (≈ 2.36 µM) | > 8 | 0.5 (≈ 1.18 µM) | – | – | – | – | –
COc1ccc2cc([C@H](C)C(=O)N(C)CC(O)(Cn3ccnc3)c3ccc(Cl)cc3Cl)ccc2c1 (stereo not given in full) | 2 (≈ 3.9 µM) | 0.25 (≈ 0.488 µM) | 0.5 (≈ 0.976 µM) | 4 (≈ 7.81 µM) | 0.5 (≈ 0.976 µM) | – | – | – | – | –

— ChEMBL document CHEMBL5214990, “Novel Aryl Alkamidazole Derivatives as Multifunctional Antifungal Inhibitors: Design, Synthesis, and Biological Evaluation” (J Med Chem, 2022)
